The source of these data is patent publication US6525059B1, “Substituted pyrazoles as p38 kinase inhibitors” (G. D. Searle & Company, priority 1998, dated 2003).

Counter-ions that a name gives are not always drawn. Like-named read-outs stand apart in the source and are kept apart here. A value given as a limit tells only on which side of the number the result lay.

One assay relates to human TNF. Put plainly: TNF inhibition: human whole blood assay. In kind it is cell-based. Particulars: Homo sapiens. Here is the method: Human peripheral blood is obtained in heparinized tubes. A 190 μL aliquot of blood is placed in each well of a 96 well u-bottom plate. […] After one hour of incubation at 37° C., […] of lipopolysaccharide (Salmonella typhosa, Sigma) in phosphate buffered saline is added resulting in a final concentration of […]. After four to five hours of incubation at 37° C., the supernatants are harvested and assayed at 1:10 or 1:20 dilutions for human TNF using ELISA.

For another assay, the system named is TNF-α. Put plainly: Rat assay: LPS-challenged rats, serum TNF-α by ELISA. In kind it is in vivo. Particulars: for inhibition in vivo at 1 mg/kg: 1.0 mg/kg oral gavage, read-out: ratLPS/% Inh @1.0 (mg/kg). Here is the method: The efficacy of the novel compounds in blocking the production of TNF also was evaluated using a model based on rats challenged with LPS. Male Harlen Lewis rats [Sprague Dawley Co.] were used in this model. Each rat weighed approximately 300 g and was fasted overnight prior to testing. Compounds administration was typically by oral gavage (although intraperitoneal, subcutaneous and intravenous administration were also used in a few instances) 1 to 24 hours prior to the LPS challenge. Rats were administered 30 μg/kg LPS [salmonella typhosa, Sigma Co.] intravenously via the tail vein. Blood was collected via heart puncture 1 hour after the LPS challenge. Serum samples were stored at −20° C. until quantitative analysis of TNF-α by Enzyme Linked-Immuno-Sorbent Assay (“ELISA”) [Biosource]. Additional details of the assay are set forth in Perretti, M., et al., Br. J. Pharmacol. (1993), 110, 868-874, which is incorporated by reference in this application.
In vivo assessment of the ability of the compounds to inhibit LPS-stimulated TNF release in the rat is shown in the column identified as:
wherein in the dose is milligram per kilogram (mpk) administered by oral gavage and the predose time indicates the number of hours before LPS challenge when the compound is administered.
In general terms: In an ELISA, binding on a coated surface is turned into a signal by an enzyme label.

For a further assay, the target named is T1, human p38 kinase alpha (Homo sapiens, UniProt Q16539).
T1 construct: The coding region of the human p38a cDNA was obtained by PCR-amplification from RNA isolated from the human monocyte cell line THP.1; GST (N); made in house; host or cells: E. coli DH10B
T1 sequence (Q16539 whole entry): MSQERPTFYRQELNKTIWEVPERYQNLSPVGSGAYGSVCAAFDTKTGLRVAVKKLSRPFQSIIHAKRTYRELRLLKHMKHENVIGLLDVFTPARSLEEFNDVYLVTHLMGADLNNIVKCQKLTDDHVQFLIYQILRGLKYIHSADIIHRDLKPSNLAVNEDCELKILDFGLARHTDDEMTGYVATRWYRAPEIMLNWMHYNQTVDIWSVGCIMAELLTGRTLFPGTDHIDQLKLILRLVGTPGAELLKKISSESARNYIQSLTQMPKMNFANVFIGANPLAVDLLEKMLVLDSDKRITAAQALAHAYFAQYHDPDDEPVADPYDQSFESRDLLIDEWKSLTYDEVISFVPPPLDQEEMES
Put plainly: p38 kinase in vitro assay, phosphorylation of biotinylated PHAS-I with gamma 32P-ATP. Type of assay: biochemical. A digest of the protocol: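 Radiometric filter-capture read-out: streptavidin plates trap biotin-PHAS-I labelled by activated (MKK6) human p38α from γ-32P-ATP. Buffer 25 mM HEPES pH 7.5, 10 mM magnesium acetate, 50 μM cold ATP; reactions 1 h or overnight at 30 °C; inhibitors 10-fold dilutions 100 to 0.001 μM, triplicates, 1% DMSO.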

[1] abbreviates: TNF production, LPS-stimulated human whole blood, read-out: Human Whole Blood IC50.
Where [2] appears, read: Rattus norvegicus, po, 5 mpk oral gavage, 4 h before LPS challenge, read-out: Rat LPS Model % Inhibition @ dose @ predose time.
Setting [3] is: read-out: P38 alpha kinase IC50.
The mark [4] stands for this setting: TNF production, LPS-stimulated human whole blood, read-out: HWB IC50.
Where [5] appears, read: Rattus norvegicus, po, 4 hours before LPS challenge.
[6] abbreviates: Rattus norvegicus, po, 5.0 mg/kg oral gavage, 4 hours before LPS challenge, read-out: ratLPS/% Inh @5.0 (mg/kg).
[7] abbreviates: Table 9, human whole blood, LPS, read-out: TNF Inhibition-Human Whole Blood Assay.
Where [8] appears, read: Rattus norvegicus, po, Table 9, dose 20 mg/kg.
The mark [9] stands for this setting: Table 8, human whole blood, LPS, read-out: TNF Inhibition-Human Whole Blood Assay.

`FC(F)(F)c1ccc(-c2n[nH]c(C3CCNCC3)c2-c2ccncc2)cc1` [Example C-83]: the results for the IC50 in the assay with human TNF (setting [1]) and on human p38 kinase alpha (setting [3]) were 1230 nM and 240 nM, respectively. Moreover, the inhibition in vivo at 5 mg/kg in the assay with TNF-α (setting [2]) was 25%.
Turning to `COCC(=O)N1CCC(c2[nH]nc(-c3ccc(Cl)cc3)c2-c2ccncn2)CC1` [Example D-3, N-(2-Methoxyacetyl)-5-(4-piperidyl)-4-(4-pyrimidyl)-3-(4-chlorophenyl)pyrazole (fumarate salt)], the figures for the IC50 in the assay on human TNF (setting [4]) and at human p38 kinase alpha (read-out: p38 alpha IC50) were 460 nM and 95 nM, respectively. Further, the “ratLPS/% Inh @20.0 (mg/kg)” value in the assay with TNF-α (20.0 mg/kg oral gavage, 4 hours before LPS challenge) came to 91.0%. In addition, the inhibition in vivo at 1 mg/kg in the assay with TNF-α (setting [5]) came out at 69%. In addition, the inhibition in vivo at 5 mg/kg in the assay on TNF-α (setting [6]) is 88%.
Consider `CS(=O)(=O)N1CCC(c2[nH]nc(-c3ccc(Cl)cc3)c2-c2ccncc2)CC1` [Example C-78], for which the values for the IC50 in the assay with human TNF (setting [1]) and at human p38 kinase alpha (setting [3]) were 10500 nM and 68 nM, respectively. Also, in the assay with TNF-α (setting [2]), the inhibition in vivo at 5 mg/kg worked out at 87%.
The matching figures for `COCC(=O)N1CCC(c2[nH]nc(-c3ccc(Cl)cc3)c2-c2ccncc2)CC1` [Example C-77]: 8200 nM, 71 nM and 92%.
With `O=C([C@H](O)c1ccccc1)N1CCC(c2[nH]nc(-c3ccc(Cl)cc3)c2-c2ccncn2)CC1` [Example D-7, (R)-N-(2-Hydroxy-2-phenylacetyl)-5-(4-piperidyl)-4-(4-pyrimidyl)-3-(4-chlorophenyl)pyrazole], the IC50 in the assay with human TNF (setting [4]) is > 25000 nM; on human p38 kinase alpha (read-out: p38 alpha IC50), 440 nM. Besides, the inhibition in vivo at 5 mg/kg with TNF-α (setting [6]) stood at 0%.
Regarding `CC(=O)N1CCC(c2[nH]nc(-c3ccc(F)cc3)c2-c2ccncc2)CC1` [Example C-113], the IC50 with human TNF (setting [1]) worked out at 2720 nM; on human p38 kinase alpha (setting [3]), 82 nM. Moreover, the inhibition in vivo at 5 mg/kg with TNF-α (setting [2]) turned out to be 77%.
For `Clc1ccc(-c2n[nH]c(C3CCNCC3)c2-c2ccncc2)cc1` [Example C-74, 5-(4-piperidyl)-4-(4-pyridyl)-3-(4-chlorophenyl)pyrazole hydrochloride], the IC50 is 560 nM in the assay with human TNF (setting [1]) and 37 nM on human p38 kinase alpha (setting [3]). The inhibition in vivo at 5 mg/kg in the assay on TNF-α (setting [2]) was 54%.
With `O=C(CO)N1CCC(c2[nH]nc(-c3ccc(OC(F)(F)F)cc3)c2-c2ccncn2)CC1` [Example D-10, N-(2-Hydroxyacetyl)-5-(4-piperidyl)-4-(4-pyrimidyl)-3-(4-trifluoromethoxyphenyl)pyrazole], the results for the IC50 with human TNF (setting [4]) and at human p38 kinase alpha (read-out: p38 alpha IC50) were 14800 nM and 3950 nM, respectively. For the same compound, in the assay on TNF-α (setting [6]), the inhibition in vivo at 5 mg/kg was 80%.
For the compound `FC(F)(F)c1cccc(-c2n[nH]c(C3CCNCC3)c2-c2ccncc2)c1` [Example C-86], the IC50 came to 190 nM in the assay with human TNF (setting [1]) and 7 nM on human p38 kinase alpha (setting [3]). Also, the inhibition in vivo at 5 mg/kg in the assay with TNF-α (setting [2]) was found to be 66%.
As for `O=C(CO)N1CCC(c2[nH]nc(-c3cccc(F)c3)c2-c2ccncn2)CC1` [Example D-12, N4(2Hydroxyacetyl)-5-(4-piperidyl)-4-(4-pyrimidyl)-3-(3-fluorophenyl)pyrazole], the IC50 with human TNF (setting [4]) was found to be 7060 nM; at human p38 kinase alpha (read-out: p38 alpha IC50), 820 nM. In the assay on TNF-α (setting [5]), the inhibition in vivo at 1 mg/kg was found to be 71%. Also, the inhibition in vivo at 5 mg/kg with TNF-α (setting [6]) came out at 91%.
Take `CN1CCC[C@@H](c2[nH]nc(-c3ccc(F)cc3)c2-c2ccncc2)C1` [Example C-128]: the IC50 came to 2220 nM in the assay on human TNF (setting [1]) and 90 nM on human p38 kinase alpha (setting [3]). Further, the inhibition in vivo at 5 mg/kg in the assay with TNF-α (setting [2]) came out at 63%.
As for `CN1CCC(c2[nH]nc(-c3cccc(Cl)c3)c2-c2ccncc2)CC1` [Example C-89], the results for the IC50 with human TNF (setting [1]) and at human p38 kinase alpha (setting [3]) were 120 nM and 39 nM, respectively. Further, the inhibition in vivo at 5 mg/kg with TNF-α (setting [2]) was found to be 27%.
Take `CN(C)[C@H]1CC[C@@H](c2[nH]nc(-c3ccc(F)cc3)c2-c2ccncc2)CC1` [Example C-99, 5-(cis-4-N,N-DIMETHYLAMINOCYCLOHEXYL)-4-(4-PYRIDYL)-3-(4-FLUOROPHENYL)PYRAZOLE]: the IC50 with human TNF (setting [1]) turned out to be 380 nM; at human p38 kinase alpha (setting [3]), 62 nM. Further, the inhibition in vivo at 5 mg/kg with TNF-α (setting [2]) stood at 36%.
In the case of `CN1CCC(c2[nH]nc(-c3ccc(Cl)cc3)c2-c2ccncc2)CC1` [Example C-75], the IC50 turned out to be 400 nM in the assay on human TNF (setting [1]) and 45 nM on human p38 kinase alpha (setting [3]). The inhibition in vivo at 5 mg/kg in the assay with TNF-α (setting [2]) stood at 71%.
The matching figures for `CS(=O)(=O)N[C@H]1CC[C@@H](c2[nH]nc(-c3ccc(Cl)cc3)c2-c2ccncc2)CC1` [Example C-97, 5-cis-[4-N-(METHYLSULFONYL)AMINOCYCLOHEXYL]-4-(4-PYRIDYL)-3-(4-CHLOROPHENYL)PYRAZOLE]: 3830 nM, 25 nM and 21%.
As for `CC(=O)Nc1ccc(Cc2[nH]nc(-c3ccc(Cl)cc3)c2-c2ccncc2)cc1` [Example C-118, 5-[4-(N-ACETYL)AMINOBENZYL]-4-(4-PYRIDYL)-3-(4-CHLOROPHENYL)PYRAZOLE], the results for the IC50 in the assay with human TNF (setting [1]) and at human p38 kinase alpha (setting [3]) were > 25000 nM and 298 nM, respectively. For the same compound, the inhibition in vivo at 5 mg/kg in the assay on TNF-α (setting [2]) stood at 39%.
With `O=C(CO)N1CCC(c2[nH]nc(-c3ccc(F)cc3)c2-c2ccncn2)CC1` [Example D-8], the IC50 was found to be 1300 nM in the assay with human TNF (setting [4]) and 180 nM at human p38 kinase alpha (read-out: p38 alpha IC50). For the same compound, in the assay with TNF-α (setting [5]), the inhibition in vivo at 1 mg/kg was 65%. Moreover, the inhibition in vivo at 5 mg/kg in the assay on TNF-α (setting [6]) is 85%.
Take `N[C@H]1CC[C@@H](c2[nH]nc(-c3ccc(C(F)(F)F)cc3)c2-c2ccncc2)CC1` [Example C-101, 5-cis-(4-AMINOCYCLOHEXYL)-4-(4-PYRIDYL)-3-[4-(TRIFLUOROMETHYL)PHENYL]PYRAZOLE]: the IC50 with human TNF (setting [1]) worked out at 3710 nM. Also, in the assay with TNF-α (setting [2]), the inhibition in vivo at 5 mg/kg amounted to 52%.
With `O[C@H]1CC[C@H](Nc2cc(-c3c[nH]nc3-c3ccc(F)cc3)ccn2)CC1` [Example A-386, trans-4-[[4-[3-(4-fluorophenyl)-1-H-pyrazol-4-yl]-2-pyridinyl]amino]cyclohexanol], the IC50 in the assay with human TNF (setting [7]) is 160 nM. Also, the inhibition in vivo at 20 mg/kg with TNF-α (setting [8]) came to 91%.
Take `CCN1CCC(Nc2cc(-c3c[nH]nc3-c3ccc(F)cc3)ccn2)CC1` [Example A-352, N-(1-ethyl-4-piperidinyl)-4-[3-(4-fluorophenyl)-1H-pyrazol-4-yl]-2-pyridinamine]: the IC50 with human TNF (setting [7]) was 9800 nM. The same compound came in with an inhibition in vivo at 20 mg/kg in the assay on TNF-α (setting [8]) of 36%.
As to `COC(=O)N1CCN(c2[nH]nc(-c3ccc(Cl)cc3)c2-c2ccncc2)CC1` [Example A-319, methyl 4-[5-(4-chlorophenyl)-4-(4-pyridinyl)-1H-pyrazol-3-yl]-1-piperazinecarboxylate, monohydrate], the IC50 with human TNF (setting [9]) was > 25000 nM. Also, the inhibition in vivo at 3 mg/kg with TNF-α (Rattus norvegicus, po, Table 8, dose 3.0 mg/kg, read-out: Rat LPS Assay % Inhibition) is 62%.
As for `CC1CN(c2[nH]nc(-c3ccc(Cl)cc3)c2-c2ccncc2)CC(C)N1` (stereo not drawn) [Example A-342, 1-[5-(4-chlorophenyl)-4-(4-pyridinyl)-1H-pyrazol-3-yl]-3,5-dimethylpiperazine], the IC50 in the assay on human TNF (setting [9]) is 310 nM. In the assay with TNF-α (Rattus norvegicus, po, Table 8, dose 20.0 mg/kg), this compound registered an inhibition in vivo at 20 mg/kg of 98%.
With `CN(C)[C@H]1CC[C@@H](c2[nH]nc(-c3ccc(C(F)(F)F)cc3)c2-c2ccncc2)CC1` [Example C-102, 5-cis-(4-N,N-DIMETHYLAMINOCYCLOHEXYL)-4-(4-PYRIDYL)-3-[4-(TRIFLUOROMETHYL)PHENYL]PYRAZOLE], in the assay with human TNF (setting [1]), the IC50 came out at 7560 nM. The inhibition in vivo at 5 mg/kg with TNF-α (setting [2]) was found to be 72%.
Turning to `OC[C@@H](Cc1ccccc1)Nc1cc(-c2c[nH]nc2-c2ccc(F)cc2)ccn1` [Example A-361, (βR)-β-[[4-[3-(4-fluorophenyl)-1H-pyrazol-4-yl]-2-pyridinyl]amino]benzene propanol], the IC50 in the assay with human TNF (setting [7]) was determined as 1000 nM. Also, the inhibition in vivo at 20 mg/kg in the assay with TNF-α (setting [8]) was determined as 9%.
